Assay results reported in ChEMBL document CHEMBL3885881, “DrugMatrix”.

Species on record: Rattus norvegicus
Experiment: DrugMatrix - Regimen: Daily Repeat
Assay type: toxicity, organism-based, Sprague-Dawley
Set-up: regimen Daily Repeat, gender Male, age 6-8 weeks
Details: in vivo, po, 10 mg/kg, route oral GAVAGE, dose level Low, vehicle .5 % CMC; for ABSOLUTE BASOPHIL / ABSOLUTE EOSINOPHIL / ABSOLUTE LYMPHOCYTE / ABSOLUTE MONOCYTE / ABSOLUTE SEGMENTED NEUTROPHIL / BASOPHIL / EOSINOPHIL / ERYTHROCYTE COUNT / HEMATOCRIT / HEMOGLOBIN / LEUKOCYTE COUNT / LYMPHOCYTE / MEAN CORPUSCULAR HEMOGLOBIN / MEAN CORPUSCULAR HEMOGLOBIN CONCENTRATION / MEAN CORPUSCULAR VOLUME / MONOCYTE / NEUTROPHIL / NUCLEATED RED BLOOD CELLS / PLATELET COUNT: tissue Blood; for ALANINE AMINOTRANSFERASE / ALBUMIN / ALKALINE PHOSPHATASE / ASPARTATE AMINOTRANSFERASE / BLOOD UREA NITROGEN / CARBON DIOXIDE / CHLORIDE / CHOLESTEROL / CREATINE PHOSPHOKINASE / CREATININE / GLUCOSE / LACTATE DEHYDROGENASE / LIPASE / PHOSPHORUS / POTASSIUM / SODIUM / TOTAL BILIRUBIN / TOTAL PROTEIN / URIC ACID: tissue Plasma

## Fc1ccc(C(c2ccc(F)cc2)N2CCN(C/C=C/c3ccccc3)CC2)cc1 [FLUNARIZINE]
72 h, time 3 day
  ABSOLUTE BASOPHIL: 0 CELLS/uL
  ABSOLUTE EOSINOPHIL: 0 CELLS/uL
  ABSOLUTE LYMPHOCYTE: 15150 CELLS/uL
  ABSOLUTE MONOCYTE: 74.33 CELLS/uL
  ABSOLUTE SEGMENTED NEUTROPHIL: 1309 CELLS/uL
  BASOPHIL: 0%
  EOSINOPHIL: 0%
  ERYTHROCYTE COUNT: 6.09 x10E6/uL
  HEMATOCRIT: 37.17%
  HEMOGLOBIN: 14.73 G/DL
  LEUKOCYTE COUNT: 16.53 x10E3/uL
  LYMPHOCYTE: 91.33%
  MEAN CORPUSCULAR HEMOGLOBIN: 24.2 pg
  MEAN CORPUSCULAR HEMOGLOBIN CONCENTRATION: 39.67 G/DL
  MEAN CORPUSCULAR VOLUME: 61.03 fL
  MONOCYTE: 0.33%
  NEUTROPHIL: 8.33%
  NUCLEATED RED BLOOD CELLS: 0.33 /100WBC
  PLATELET COUNT: 1291 x10E3/uL
  ALANINE AMINOTRANSFERASE: 42.67 u/L
  ALBUMIN: 4.7 G/DL
  ALKALINE PHOSPHATASE: 347.33 u/L
  ASPARTATE AMINOTRANSFERASE: 90.33 u/L
  BLOOD UREA NITROGEN: 18 mg/dL
  CARBON DIOXIDE: 20 mmol/L
  CHLORIDE: 101 MEQ/L
  CHOLESTEROL: 87.67 mg/dL
  CREATINE PHOSPHOKINASE: 406.67 u/L
  CREATININE: 0.23 mg/dL
  GLUCOSE: 149 mg/dL
  LACTATE DEHYDROGENASE: 371.67 u/L
  LIPASE: 9 u/L
  PHOSPHORUS: 12.27 mg/dL
  POTASSIUM: 6.75 MEQ/L
  SODIUM: 143.6 MEQ/L
  TOTAL BILIRUBIN: 0.2 mg/dL
  TOTAL PROTEIN: 6.57 G/DL
  URIC ACID: 1.67 mg/dL
120 h, time 5 day
  ABSOLUTE BASOPHIL: 0 CELLS/uL
  ABSOLUTE EOSINOPHIL: 122 CELLS/uL
  ABSOLUTE LYMPHOCYTE: 14703 CELLS/uL
  ABSOLUTE MONOCYTE: 297.33 CELLS/uL
  ABSOLUTE SEGMENTED NEUTROPHIL: 711 CELLS/uL
  BASOPHIL: 0%
  EOSINOPHIL: 0.67%
  ERYTHROCYTE COUNT: 5.61 x10E6/uL
  HEMATOCRIT: 36.03%
  HEMOGLOBIN: 14.1 G/DL
  LEUKOCYTE COUNT: 15.83 x10E3/uL
  LYMPHOCYTE: 93%
  MEAN CORPUSCULAR HEMOGLOBIN: 25.13 pg
  MEAN CORPUSCULAR HEMOGLOBIN CONCENTRATION: 39.17 G/DL
  MEAN CORPUSCULAR VOLUME: 64.2 fL
  MONOCYTE: 2%
  NEUTROPHIL: 4.33%
  NUCLEATED RED BLOOD CELLS: 0 /100WBC
  PLATELET COUNT: 1316 x10E3/uL
  ALANINE AMINOTRANSFERASE: 52 u/L
  ALBUMIN: 4.43 G/DL
  ALKALINE PHOSPHATASE: 419 u/L
  ASPARTATE AMINOTRANSFERASE: 84.33 u/L
  BLOOD UREA NITROGEN: 14.67 mg/dL
  CARBON DIOXIDE: 24 mmol/L
  CHLORIDE: 103.67 MEQ/L
  CHOLESTEROL: 74.33 mg/dL
  CREATINE PHOSPHOKINASE: 286 u/L
  CREATININE: 0.11 mg/dL
  GLUCOSE: 150.67 mg/dL
  LACTATE DEHYDROGENASE: 187.33 u/L
  LIPASE: 8.67 u/L
  PHOSPHORUS: 14.07 mg/dL
  POTASSIUM: 6.62 MEQ/L
  SODIUM: 147.27 MEQ/L
  TOTAL BILIRUBIN: 0.2 mg/dL
  TOTAL PROTEIN: 6.03 G/DL
  URIC ACID: 1.67 mg/dL
